Assay results: patent US20230241000A1, “GSK3 INHIBITOR-LOADED NANO FORMULATIONS AS A CANCER IMMUNOTHERAPEUTIC” (The Regents of the University of California, priority 2020, published 2023)
Entries after “also recorded” stand apart in the source; their conditions may differ.

Columns and labels:
[1] = Maximum tolerated dose study of free AZD1080; format: in vivo; details: one-time tail vein injection, 5 to 25.3 mg/kg, weights recorded 14 days; listed as free AZD1080
Experimental: Dotted lines represent thresholds for toxicity (−15%) and weight loss requiring euthanasia (20%). Body weight changes are relative to individual mouse initial weights. N=4 mice per group, error bars are SEM.
In order to establish a safe working concentration for murine experiments on AZD1080, we used a previously established dose of 5 mg/kg for the treatment of an Alzheimer's-like disease process in rats (29) for planning of a maximum tolerated dose assessment (FIG. 14). […] This prompted us to continue the use of the established dose of 5 mg/kg, for a total of three injections in our animal studies.
The maximum tolerated dose of AZD1080 was determined using a protocol from the National Cancer Institute (72). C57BL/6 mice were injected with AZD1080 solutions via tail vein (100 μL) and weights were recorded daily for 14 days. AZD1080 was solubilized in 30% PEG400, 0.5% Tween-80, 5% polyethylene, and 64.5% 1×PBS. The injected amounts of AZD1080 were 5, 7.5, 11.25, 16.87, or 25.31 mg/kg per mouse, n=4 mice per group.

[2] = Remote loading of GSK3 inhibitors into silicasomes: encapsulation efficiency and loading capacity; format: physicochemical
Experimental: The overall scheme for the synthesis of silicasome carriers to deliver GSK3 inhibitors is outlined in FIG. 3. Briefly, a large batch (i.e. 120 g) synthesis of bare particles was carried out as previously, yielding ˜70 nm MSNPs (FIG. 3, panel A) (22). […] 20 mg soaked-in MSNPs were then used together with an ethanol suspended lipid solution, comprised of a mixture of 60 mg DSPC:Cholesterol:PE-PEG2000 (molar ratio of 6:4:0.3), for coating with a lipid bilayer by a flow through sonication procedure (FIG. 3, panel B). Following the removal of the non-encapsulated trapping agent, AZD2858, AZD1080, LY2090314, and 1-Azakenpaullone were dissolved in 0.9% saline and incubated with the silicasome carrier to assess the loading capacity in response to different feed weight percentages (FIG. 11).
Four GSK3 inhibitor-laden silicasome formulations were analyzed to assess encapsulation efficiency and loading capacity. 100 μL of the silicasomes suspension at 10 mg/mL in 0.9% NaCl (1 mg silicasomes) was added to AZD1080, AZD2858, LY2090314, and 1-azakenpaullone solutions, which were prepared by adding 50, 100 or 200 μg of each inhibitor to 900 μL water. These drug mass quantities provided feed weight percentages of 5, 10, and 20%, in comparison to the silicasome mass. Following execution of the remote loading procedure as detailed above, the crude solutions were used to assess absorbance in a glass bottom 96-well plate (Total Drug Absorbance). Silicasomes were centrifuged at 21,000×g for 15 minutes to pellet the particles. After removal of the supernatant, the silicasomes were re-suspended in aa fresh 0.9% NaCl solution. This was repeated three times to remove any unloaded inhibitor. The silicasome solution was then sampled and absorbance was measured to determine Loaded Drug Absorbance. Concentration-matched unloaded ‘blank’ silicasomes also had absorbance measured (Silicasome Blank Absorbance). Encapsulation efficiency was calculated by the following formula: […]
All measurements were taken using a SpectraMax M5 plate reader (Molecular Devices). All solutions were diluted 1/10 in 0.9% NaCl solution prior to absorbance reads. The absorbances used for each compound were: 418 nm for AZD1080, 383 nm for AZD2858, 213 nm for LY2090314, and 334 nm for 1-azakenpaullone.

MC38 colon cancer = experiment: MC38 syngeneic colon cancer model, subcutaneous tumor growth; format: in vivo, C57BL/6 mice
Experimental: Treatment was repeated every three days for a total of three administrations. Mice were sacrificed four days after the final treatment. The study was executed as two separate experiments, using animal group sizes of n=6 and n=9, respectively. […] The first set of analyses was performed on the tumor volume growth curves (FIG. 5, panel A), impact on final tumor volumes (FIG. 5, panel B) and tumor weight (FIG. 5, panel C) at the time of sacrifice.
MC38 cells, stably transfected with a luciferase vector, were inoculated into the right flank of C57BL/6 mice, using 0.7×10^6 cells in 40% Matrigel 1×PBS solution. Tumors were allowed to grow to a size of ˜50 mm^3 prior to the initiation of treatment, approximately 14 days after initial inoculation. Mice with outlier tumor sizes (either too small or too large) were excluded from further study. The remaining animals were randomly assigned to the different treatment groups. Mice were treated with three injections, set three days apart, and were sacrificed 4 days after the final treatment administration. […] Two separate experiments were performed, the first with n=6 mice per group and the second with n=9 animals.

N#Cc1ccc2[nH]c(O)c(-c3ccc(CN4CCOCC4)cn3)c2c1 [AZD1080]
tolerability on dose escalation (weight loss, behavior, mortality, adverse events) [1]: devoid of significant weight loss, abnormal behavior or posture, mortality or other adverse events | Encapsulation Efficiency ([2]; AZD1080 remote loaded in silicasome, feed weight of 5%, ± SD, 3 samples): 62.5% | Loading Capacity ([2]; AZD1080 remote loaded in silicasome, ± SD, 3 samples): 8.1 w/w % | solubility during remote loading (in words) ([2]; dissolved in 0.9% saline, incubated with silicasome carrier, feed weight %): good aqueous solubility | encapsulation efficiency in silicasomes (in words) ([2]; remote loading at 5, 10 or 20 feed weight %): highest encapsulation efficiency; also recorded: moderate efficiency | number of tumor-free animals at time of sacrifice (out of 15) (MC38 colon cancer; MC38, three administrations, n=15 per group): 3/15 | tumor growth inhibition in MC38 (significance vs saline) (MC38 colon cancer; three administrations every three days, sAZD1080 5 mg/kg IV, free AZD1080 5 mg/kg IP, SB415286 8 mg/kg IP, anti-PD-1 4 mg/kg IP, n=15): no significant effect on tumor growth inhibition
